Calls of active or inactive are those of the source.

Drawing on ChEMBL document CHEMBL1201862, “PubChem BioAssay data set” (2004), this text covers IC50, EC50 and CC50 for two compounds.

Assay [1] has as its target SUMO-activating enzyme (Homo sapiens, UniProt Q9UBT2). In words: blockers of SAE1/SAE2–UBC9 SUMO transfer – biochemical, HTRF, uHTS, primary screen (AID 2006). The class given is protein-complex assay. For orientation: TR-FRET usually uses a lanthanide donor and a delayed reading to cut background.
Assay [2] in a line: Luminescence Cell-Based Dose Response HTS to Identify Activators of Luciferase Translation or Activity in H4 […] Cells. [Related pubchem assays: 1829 (Project Summary), 1814 (Primary HTS)]. The class given is functional.
The subject of assay [3] is H4. In words: Luminescence Cell-Based Dose Response HTS to Identify Activators of 5'UTR Stem-Loop Driven Prion Protein mRNA Translation in H4 Neuroglioblastoma Cells. [Related pubchem assays: 1829 (Project Summary), 1814 (Primary HTS)]. Format: functional. Conditions: Homo sapiens.
For assay [4], the target named is T1, Sphingosine 1-phosphate receptor 4 (Homo sapiens, UniProt O95977).
T1 sequence (O95977 whole entry): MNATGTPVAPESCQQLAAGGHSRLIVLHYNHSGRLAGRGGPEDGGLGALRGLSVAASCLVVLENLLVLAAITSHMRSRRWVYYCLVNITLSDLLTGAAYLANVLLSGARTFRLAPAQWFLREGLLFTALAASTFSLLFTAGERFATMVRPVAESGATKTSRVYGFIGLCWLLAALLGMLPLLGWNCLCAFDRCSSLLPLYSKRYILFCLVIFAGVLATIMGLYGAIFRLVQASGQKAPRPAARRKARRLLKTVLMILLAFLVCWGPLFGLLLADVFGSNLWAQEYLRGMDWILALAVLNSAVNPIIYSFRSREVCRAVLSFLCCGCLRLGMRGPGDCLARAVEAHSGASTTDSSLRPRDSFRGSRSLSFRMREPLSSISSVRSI
Description: Late stage fluorescence dose response cell-based screening assay for antagonists of the Sphingosine 1-Phosphate Receptor 4 (S1P4). [Related pubchem assays: 1524 (Confirmation screen (S1P4 antagonists).), 1510 (Primary screen (S1P4 antagonists).), 1853 (Summary AID (S1P4 antagonists).), 1692 (Dose response screen (S1P4 antagonists).)]. The class given is functional.

Assay [5] is described as follows: THP-1 cell cytotoxicity, dose response, cytotoxicity control for non-replicating M. tuberculosis project (AID 489025). The class given is functional.
Assay [6] in a line: cells. Format: functional.
Assay [7] has as its system CHO. In words: CHO cell viability loss, potency – luminescence, cytotoxicity control for TLR9-MyD88 binding inhibitor project, dose response (AID 588339).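 Also: CHO cells stably coexpressing TLR9 and MyD88 fusions from primary screen; compound exposure lasted 48 hours before viability readout.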 The class given is functional, cell-based, hamster. To be noted: Cricetulus griseus.

Chain of SUMO-activating enzyme (Q9UBE0 whole entry): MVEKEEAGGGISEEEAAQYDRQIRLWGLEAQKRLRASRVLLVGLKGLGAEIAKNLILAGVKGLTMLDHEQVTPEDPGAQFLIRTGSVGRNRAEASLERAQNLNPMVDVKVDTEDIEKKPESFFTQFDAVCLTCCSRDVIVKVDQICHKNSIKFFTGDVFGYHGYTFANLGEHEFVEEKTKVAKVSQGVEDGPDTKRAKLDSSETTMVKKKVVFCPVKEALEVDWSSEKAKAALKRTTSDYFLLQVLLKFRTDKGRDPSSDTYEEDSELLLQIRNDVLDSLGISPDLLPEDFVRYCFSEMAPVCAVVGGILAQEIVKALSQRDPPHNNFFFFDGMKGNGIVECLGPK
Chain of SUMO-activating enzyme (Q9UBT2 whole entry): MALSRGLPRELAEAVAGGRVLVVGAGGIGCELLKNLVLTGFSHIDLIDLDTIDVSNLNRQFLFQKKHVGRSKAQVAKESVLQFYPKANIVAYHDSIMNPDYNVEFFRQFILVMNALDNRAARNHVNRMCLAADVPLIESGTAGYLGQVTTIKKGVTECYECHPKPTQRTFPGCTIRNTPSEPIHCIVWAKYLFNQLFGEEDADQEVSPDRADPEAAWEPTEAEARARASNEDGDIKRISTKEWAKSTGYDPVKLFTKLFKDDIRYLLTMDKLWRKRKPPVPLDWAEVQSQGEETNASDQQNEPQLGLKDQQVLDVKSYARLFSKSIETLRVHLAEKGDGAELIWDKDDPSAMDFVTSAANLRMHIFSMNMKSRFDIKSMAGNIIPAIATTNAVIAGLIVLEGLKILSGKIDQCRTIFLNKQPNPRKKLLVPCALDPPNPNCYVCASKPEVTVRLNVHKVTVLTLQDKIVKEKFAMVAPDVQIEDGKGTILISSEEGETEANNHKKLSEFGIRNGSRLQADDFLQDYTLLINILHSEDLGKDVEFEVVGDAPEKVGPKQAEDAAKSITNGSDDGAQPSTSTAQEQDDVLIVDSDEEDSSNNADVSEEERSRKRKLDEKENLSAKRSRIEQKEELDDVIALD

For the compound `O=C1C=C(Nc2ccccc2)c2ccccc2C1=O`, in assay [1], the IC50 (in general, the concentration at which inhibition is half-maximal) is 20.7 µM (active).
For the compound `O=C(Nc1ccccc1)c1nnsc1[S+]([O-])c1ccc(Cl)cc1` (configuration not stated), the EC50 (in general, the concentration that produces a half-maximal response) is 4.31 µM (active) in assay [2] and 24 µM (active) in assay [3]. In addition, the IC50 was 12 µM (not active) in assay [4], 13.1 µM (active) in assay [6] and 3.46 µM (active) in assay [7]. Besides, in assay [5], the CC50 (as a rule, the concentration giving 50% cytotoxicity) was 23.4 µM (active).
